Patent US20140080114A1, “METHODS, KITS AND COMPOSITIONS FOR INACTIVATION OF VIRAL AGENTS IN WHOLE BLOOD AND RED BLOOD CELL CONCENTRATES” (APHIOS CORPORATION, priority 2012, published 2014)

Tested on: bovine viral diarrhea virus (BVDV)
Assay: Hypericin-luciferase inactivation of BVDV spiked into human red blood cell concentrate, titration of unwashed and washed samples (CPE, TCID50)
Assay type: cell-based
Details: for Unwashed Titer / Combined VRF (Titer of unwashed RBC control − Titer of washed sample) / Unwashed VRF (Titer of RBC control − Titer of sample) / Washed Titer / Washed VRF (Titer of RBC control − Titer of sample): Table 1 (Example 1), hypericin low=40, high=200 μg/mL, luciferase low=0.8, high=4.0 μM; for Unwashed Titer: RBCC, RT 2 hours in the dark, luciferin 0.08 mM, ATP 0.8 mM
Procedure: This dose range had not been tested in the previous experiments. Ten different combinations of DMEM (—Ca++, —Mg++), RBCC, virus, hypericin, luciferin, adenosine triphosphate (ATP) and luciferase were prepared to all contain equivalent titers of BVDV calculated to be 6.48 log 10TCID50/mL (logs) based on the titer of the original virus stock. The concentrations of hypericin tested were 40, 80 and 120 μg/mL. Luciferase was tested at 0.16, 0.32 and 0.8 μM. Luciferin and ATP were present at 80 and 800 μM respectively.
The compounds were mixed and incubated at RT for 2 hours in the dark followed by titration of unwashed and washed samples as previously described. Washing rows of wells with dilutions 1 and 2 was performed 2 days post-infection. Final CPEs were read 10 days post-infection.

SMILES | Unwashed Titer [log10TCID50/mL] | Combined VRF (Titer of unwashed RBC control − Titer of washed sample) [log TCID50] | Unwashed VRF (Titer of RBC control − Titer of sample) [log TCID50] | Washed Titer [log10TCID50/mL] | Washed VRF (Titer of RBC control − Titer of sample) [log TCID50] | optimal dose of hypericin (with different doses of luciferase, for BVDV) [µg/mL]
Cc1cc(O)c2c(=O)c3c(O)cc(O)c4c5c(O)cc(O)c6c(=O)c7c(O)cc(C)c8c1c2c(c34)c(c78)c65 [HH-LN, hypericin] | 3.10 | 3.87 | 3.25 | 2.48 | 1.50 | 
Cc1cc(O)c2c(=O)c3c(O)cc(O)c4c5c(O)cc(O)c6c(=O)c7c(O)cc(C)c8c1c2c(c34)c(c78)c65 [HL-LN, hypericin] | 3.48 | >4.01 | 2.87 | <2.34 | >1.64 | 
Cc1cc(O)c2c(=O)c3c(O)cc(O)c4c5c(O)cc(O)c6c(=O)c7c(O)cc(C)c8c1c2c(c34)c(c78)c65 [hypericin, reference compound] |  |  |  |  |  | 40
